Test results taken from patent US11571421B2, “GABAA positive allosteric modulator compounds for treatment of itch and/or dermatitis” (NeuroCycle Therapeutics, Inc., priority 2018, dated 2023).
Values joined by “and” are separate entries in the source; they are usually repeats but may differ in a detail not shown here. Identical values can stand only once.

Tested on: Chloroquine (CQ)-Induced Itch Model in Male C57BL/6 Mice
Assay: Chloroquine Induced Itch Model, AZD7325 (Example 2)
Type: in vivo
Description: Other GABAA positive allosteric modulators are predicted to have similar effects on pruritic conditions and dermatitis as PF-06372865. […] In this study, the efficacy of AZD7325 was evaluated in the Chloroquine Induced Itch Model in Male C57BL/6 Mice. […]
AZD7325 was weighed into a clean glass container. A 5% 2-hydroxypropyl-β-cyclodextrin was added and the resulting mixture was mixed well using mild vortexing and sonicated for 15-20 minutes to provide a homogeneous suspension.
21 mg of chloroquine phosphate was weighed in a clean glass container. 5.2 mL PBS was added, and the resulting mixture was mixed well using mild vortexing to form the desired strength solution.
The right-side cheek area of all the animals was shaved with animal clippers 1 day prior to the experiment. Animals were randomized into different treatment groups based on body weight to avoid variability in weights across groups one day prior to experiment. Reference formulations and chloroquine phosphate solution were prepared on the day of the experiment.
Animals were dosed per oral with respective treatment group using a dose volume of 10 ml/kg. Times of dosing were recorded. Immediately after compound treatment, animals were kept in a empty transparent chamber (23 cm length×17 cm width) for acclimatization and observation.
Ninety (90) minutes post compound dosing, 50-μl of chloroquine phosphate solution (a 200-μg dose) was injected intracutaneously into the animal's right cheek. Animals were returned to the same chamber for observation. Animals were observed by an observer blind to the treatment group for a period of 30 minutes post chloroquine injection. Total number of bouts of scratching directed at the ipsilateral cheek were recorded for 30 minutes.

[1] = 0.3 mg/kg PO, individual animals
[2] = 10 mg/kg PO, individual animals
[3] = 30 mg/kg PO, individual animals

## CCCNC(=O)c1nnc2c(-c3c(F)cccc3OC)cccc2c1N [AZD7325]
0.3 mg/kg PO, MEAN, N=6
  Scratching bouts (Nos.) In 30 min, 0-5 min: 1.17 Nos.
  Scratching bouts (Nos.) In 30 min, 5-10 min: 11.00 Nos.
  Scratching bouts (Nos.) In 30 min, 10-15 min: 17.17 Nos.
  Scratching bouts (Nos.) In 30 min, 15-20 min: 24.00 Nos.
  Scratching bouts (Nos.) In 30 min, 20-25min: 16.83 Nos.
  Scratching bouts (Nos.) In 30 min, 25-30 min: 24.00 Nos.
  Total Scratching bouts: 94.17 (Nos.)/30 min
[1]
  Scratching bouts (Nos.) In 30 min, 0-5 min: 0 Nos. (4×) and 5 Nos. and 2 Nos.
  Scratching bouts (Nos.) In 30 min, 5-10 min: 17 Nos. and 0 Nos. (2×) and 9 Nos. and 24 Nos. and 16 Nos.
  Scratching bouts (Nos.) In 30 min, 10-15 min: 22 Nos. and 25 Nos. and 10 Nos. and 15 Nos. and 1 Nos. and 30 Nos.
  Scratching bouts (Nos.) In 30 min, 15-20 min: 45 Nos. and 30 Nos. and 0 Nos. and 14 Nos. and 28 Nos. and 27 Nos.
  Scratching bouts (Nos.) In 30 min, 20-25min: 11 Nos. and 28 Nos. and 18 Nos. and 29 Nos. and 15 Nos. and 0 Nos.
  Scratching bouts (Nos.) In 30 min, 25-30 min: 21 Nos. and 15 Nos. (2×) and 31 Nos. and 23 Nos. and 39 Nos.
  Total Scratching bouts: 116 (Nos.)/30 min and 98 (Nos.)/30 min and 73 (Nos.)/30 min and 105 (Nos.)/30 min and 61 (Nos.)/30 min and 112 (Nos.)/30 min
1 mg/kg PO, MEAN, N=6
  Scratching bouts (Nos.) In 30 min, 0-5 min: 2.00 Nos.
  Scratching bouts (Nos.) In 30 min, 5-10 min: 10.33 Nos.
  Scratching bouts (Nos.) In 30 min, 10-15 min: 15.67 Nos.
  Scratching bouts (Nos.) In 30 min, 15-20 min: 22.33 Nos.
  Scratching bouts (Nos.) In 30 min, 20-25min: 19.17 Nos.
  Scratching bouts (Nos.) In 30 min, 25-30 min: 14.33 Nos.
  Total Scratching bouts: 83.83 (Nos.)/30 min
1 mg/kg PO, individual animals
  Scratching bouts (Nos.) In 30 min, 0-5 min: 0 Nos. (2×) and 2 Nos. and 3 Nos. and 6 Nos. and 1 Nos.
  Scratching bouts (Nos.) In 30 min, 5-10 min: 1 Nos. and 7 Nos. and 18 Nos. and 36 Nos. and 0 Nos. (2×)
  Scratching bouts (Nos.) In 30 min, 10-15 min: 0 Nos. and 15 Nos. and 26 Nos. and 8 Nos. and 21 Nos. and 24 Nos.
  Scratching bouts (Nos.) In 30 min, 15-20 min: 30 Nos. and 24 Nos. and 14 Nos. and 7 Nos. and 44 Nos. and 15 Nos.
  Scratching bouts (Nos.) In 30 min, 20-25min: 48 Nos. and 38 Nos. and 7 Nos. and 10 Nos. and 12 Nos. and 0 Nos.
  Scratching bouts (Nos.) In 30 min, 25-30 min: 0 Nos. and 9 Nos. and 17 Nos. and 4 Nos. and 30 Nos. and 26 Nos.
  Total Scratching bouts: 79 (Nos.)/30 min and 95 (Nos.)/30 min and 85 (Nos.)/30 min and 65 (Nos.)/30 min and 113 (Nos.)/30 min and 66 (Nos.)/30 min
3 mg/kg PO, MEAN, N=6
  Scratching bouts (Nos.) In 30 min, 0-5 min: 1.50 Nos.
  Scratching bouts (Nos.) In 30 min, 5-10 min: 7.50 Nos.
  Scratching bouts (Nos.) In 30 min, 10-15 min: 16.33 Nos.
  Scratching bouts (Nos.) In 30 min, 15-20 min: 17.17 Nos.
  Scratching bouts (Nos.) In 30 min, 20-25min: 13.33 Nos.
  Scratching bouts (Nos.) In 30 min, 25-30 min: 11.33 Nos.
  Total Scratching bouts: 67.17 (Nos.)/30 min
3 mg/kg PO, individual animals
  Scratching bouts (Nos.) In 30 min, 0-5 min: 3 Nos. and 0 Nos. (4×) and 6 Nos.
  Scratching bouts (Nos.) In 30 min, 5-10 min: 0 Nos. (3×) and 31 Nos. and 12 Nos. and 2 Nos.
  Scratching bouts (Nos.) In 30 min, 10-15 min: 20 Nos. and 22 Nos. and 17 Nos. and 9 Nos. and 14 Nos. and 16 Nos.
  Scratching bouts (Nos.) In 30 min, 15-20 min: 18 Nos. and 5 Nos. and 35 Nos. and 26 Nos. and 19 Nos. and 0 Nos.
  Scratching bouts (Nos.) In 30 min, 20-25min: 2 Nos. and 32 Nos. and 22 Nos. and 6 Nos. and 10 Nos. and 8 Nos.
  Scratching bouts (Nos.) In 30 min, 25-30 min: 8 Nos. (2×) and 19 Nos. and 11 Nos. and 20 Nos. and 2 Nos.
  Total Scratching bouts: 51 (Nos.)/30 min and 78 (Nos.)/30 min and 119 (Nos.)/30 min and 64 (Nos.)/30 min and 63 (Nos.)/30 min and 28 (Nos.)/30 min
10 mg/kg PO, MEAN, N=6
  Scratching bouts (Nos.) In 30 min, 0-5 min: 0.50 Nos.
  Scratching bouts (Nos.) In 30 min, 5-10 min: 6.17 Nos.
  Scratching bouts (Nos.) In 30 min, 10-15 min: 15.17 Nos.
  Scratching bouts (Nos.) In 30 min, 15-20 min: 12.50 Nos.
  Scratching bouts (Nos.) In 30 min, 20-25min: 13.67 Nos.
  Scratching bouts (Nos.) In 30 min, 25-30 min: 15.17 Nos.
  Total Scratching bouts: 63.17 (Nos.)/30 min
[2]
  Scratching bouts (Nos.) In 30 min, 0-5 min: 0 Nos. (4×) and 1 Nos. and 2 Nos.
  Scratching bouts (Nos.) In 30 min, 5-10 min: 7 Nos. (2×) and 0 Nos. (2×) and 22 Nos. and 1 Nos.
  Scratching bouts (Nos.) In 30 min, 10-15 min: 41 Nos. and 11 Nos. and 7 Nos. and 19 Nos. and 0 Nos. and 13 Nos.
  Scratching bouts (Nos.) In 30 min, 15-20 min: 9 Nos. and 0 Nos. (2×) and 22 Nos. and 25 Nos. and 19 Nos.
  Scratching bouts (Nos.) In 30 min, 20-25min: 0 Nos. (2×) and 10 Nos. and 20 Nos. and 19 Nos. and 33 Nos.
  Scratching bouts (Nos.) In 30 min, 25-30 min: 23 Nos. and 37 Nos. and 24 Nos. and 0 Nos. (2×) and 7 Nos.
  Total Scratching bouts: 80 (Nos.)/30 min and 65 (Nos.)/30 min and 73 (Nos.)/30 min and 85 (Nos.)/30 min and 61 (Nos.)/30 min and 15 (Nos.)/30 min
30 mg/kg PO, MEAN, N=6
  Scratching bouts (Nos.) In 30 min, 0-5 min: 5.17 Nos.
  Scratching bouts (Nos.) In 30 min, 5-10 min: 11.67 Nos.
  Scratching bouts (Nos.) In 30 min, 10-15 min: 7.17 Nos.
  Scratching bouts (Nos.) In 30 min, 15-20 min: 18.33 Nos.
  Scratching bouts (Nos.) In 30 min, 20-25min: 6.17 Nos.
  Scratching bouts (Nos.) In 30 min, 25-30 min: 2.83 Nos.
  Total Scratching bouts: 51.33 (Nos.)/30 min
[3]
  Scratching bouts (Nos.) In 30 min, 0-5 min: 0 Nos. (3×) and 1 Nos. and 20 Nos. and 10 Nos.
  Scratching bouts (Nos.) In 30 min, 5-10 min: 9 Nos. and 15 Nos. and 0 Nos. (2×) and 1 Nos. and 45 Nos.
  Scratching bouts (Nos.) In 30 min, 10-15 min: 8 Nos. and 1 Nos. and 22 Nos. and 3 Nos. and 9 Nos. and 0 Nos.
  Scratching bouts (Nos.) In 30 min, 15-20 min: 29 Nos. and 0 Nos. and 11 Nos. and 10 Nos. and 47 Nos. and 13 Nos.
  Scratching bouts (Nos.) In 30 min, 20-25min: 5 Nos. and 0 Nos. (3×) and 16 Nos. (2×)
  Scratching bouts (Nos.) In 30 min, 25-30 min: 0 Nos. (4×) and 12 Nos. and 5 Nos.
  Total Scratching bouts: 51 (Nos.)/30 min and 29 (Nos.)/30 min and 69 (Nos.)/30 min and 18 (Nos.)/30 min and 57 (Nos.)/30 min and 84 (Nos.)/30 min
At 1, 3, 10 and 30 mg/kg doses
  scratching bouts compared to vehicle treatment, significance: Statistically significant decrease
Quantified for 30 minutes post CQ injection, 0.3-30 mg/kg PO
  total number of scratching bouts, dose response: dose dependent decrease
